Reference: ChEMBL document CHEMBL1697723, “A predictive ligand-based Bayesian model for human drug-induced liver injury” (Drug Metab Dispos, 2010)
Starred links: 1 amine or outer side, 2 acyl side, 3 side chain; linkers in the order of their positions; H or OH if unused. Positions of bridges follow the written chain, without caps; N, C: chain ends. Non-standard residues stand in square brackets, D forms with d. Residues, ends and D or L forms follow the SMILES beside them. Adda = CO[C@@H](Cc1ccccc1)[C@@H](C)/C=C(C)/C=C/[C@H](N[*:1])[C@H](C)C(=O)[*:2]; dAsp(3S-Me) = C[C@H](C(=O)[*:3])[C@@H](N[*:1])C(=O)[*:2]; d(γGlu) = O=C(O)[C@@H](CCC(=O)[*:2])N[*:1]; NMeDha = C=C(NC)C(=O)O

What follows are compounds tested on Hepatotoxicity (assay: Human drug-induced liver injury (DILI) modelling dataset from Ekins et al). Conditions: not given.

Compound	Hepatotoxicity
C=C1C(=O)N[C@H](C)C(=O)N[C@@H](CC(C)C)C(=O)N[C@@H](C(=O)O)[C@H](C)C(=O)N[C@@H](CCCNC(=N)N)C(=O)N[C@@H](/C=C/C(C)=C/[C@H](C)[C@H](Cc2ccccc2)OC)[C@H](C)C(=O)N[C@@H](C(=O)O)CCC(=O)N1C [MICROCYSTIN-LR] (R[Adda][d(γGlu)][NMeDha][dA]L[dAsp(3S-Me)]-OH; lactam N-7)	DILI positive (test set)
CCCCCCCCCCCCCCCC(=O)OC/C=C(C)/C=C/C=C(C)/C=C/C1=C(C)CCCC1(C)C [VITAMIN A PALMITATE]	DILI positive (test set)
O=[N+]([O-])c1ccc(O)c([N+](=O)[O-])c1 [2,4-DINITROPHENOL]	DILI positive (test set)
Oc1c(Cl)cc(Cl)cc1Sc1cc(Cl)cc(Cl)c1O [BITHIONOL]	DILI positive (test set)
CC(CN1c2ccccc2Sc2ccccc21)N(C)C.Cl (configuration not stated) [PROMETHAZINE HYDROCHLORIDE]	DILI negative (training set)
CC(C(=O)[O-])c1cccc(Oc2ccccc2)c1.[Na+] (configuration not stated) [FENOPROFEN SODIUM]	DILI positive (training set)
COc1cc(C)c(/C=C/C(C)=C/C=C/C(C)=C/C(=O)O)c(C)c1C [ACITRETIN]	DILI positive (training set)
Cl.N=C(N)NC(=O)c1nc(Cl)c(N)nc1N.O.O [AMILORIDE HYDROCHLORIDE]	DILI negative (training set)
CN[C@@H]1[C@H](O)[C@H](NC)[C@H]2O[C@@]3(O)C(=O)C[C@@H](C)O[C@H]3O[C@@H]2[C@H]1O.Cl	DILI positive (test set)
C=C[C@H]1CN2CC[C@H]1C[C@H]2[C@H](O)c1ccnc2ccc(OC)cc12.C=C[C@H]1CN2CC[C@H]1C[C@H]2[C@H](O)c1ccnc2ccc(OC)cc12.O.O.O=S(=O)(O)O [QUININE SULFATE]	DILI positive (test set)
AURANOFIN	DILI positive (test set)
CCC(=O)OCC(=O)[C@@]1(OC(=O)CC)[C@@H](C)C[C@H]2[C@@H]3CCC4=CC(=O)C=C[C@]4(C)[C@@]3(Cl)[C@@H](O)C[C@@]21C [BECLOMETHASONE DIPROPIONATE]	DILI negative (training set)
CN(C)C(=O)C(CCN1CCC(O)(c2ccc(Cl)cc2)CC1)(c1ccccc1)c1ccccc1.Cl [LOPERAMIDE HYDROCHLORIDE]	DILI negative (training set)
CC(=O)CC(c1ccc([N+](=O)[O-])cc1)c1c(O)c2ccccc2oc1=O (configuration not stated) [ACENOCOUMAROL]	DILI positive (test set)
CC(C)c1nc(CN(C)C(=O)N[C@H](C(=O)N[C@@H](Cc2ccccc2)C[C@H](O)[C@H](Cc2ccccc2)NC(=O)OCc2cncs2)C(C)C)cs1 [RITONAVIR]	DILI positive (test set)
O=c1[nH]c(=O)n([C@H]2C[C@H](O)[C@@H](CO)O2)cc1I [IDOXURIDINE]	DILI positive (training set)
Cc1cnc(NC(=O)C2=C(O)c3ccccc3S(=O)(=O)N2C)s1 [MELOXICAM]	DILI negative (test set)
CN(C)[C@@H]1C(O)=C(C(N)=O)C(=O)[C@@]2(O)C(O)=C3C(=O)c4c(O)ccc(Cl)c4[C@@](C)(O)[C@H]3C[C@@H]12.Cl [CHLORTETRACYCLINE HYDROCHLORIDE]	DILI positive (training set)
CC(COc1ccccc1)NC(C)C(O)c1ccc(O)cc1.Cl (configuration not stated) [ISOXSUPRINE HYDROCHLORIDE]	DILI negative (training set)

Compound	Hepatotoxicity
CNC(=O)Oc1ccc2c(c1)[C@]1(C)CCN(C)[C@@H]1N2C [PHYSOSTIGMINE]	DILI negative (training set)
CN(C)CCn1nnnc1SCC1=C(C(=O)O)N2C(=O)[C@@H](NC(=O)Cc3csc(N)n3)[C@H]2SC1.Cl.Cl [CEFOTIAM HYDROCHLORIDE]	DILI positive (test set)
CC1(C)S[C@@H]2[C@H](NC(=O)[C@H](N)c3ccc(O)cc3)C(=O)N2[C@H]1C(=O)O [AMOXICILLIN]	DILI negative (test set)
CCO[C@@H](Cc1ccc(OCCN2c3ccccc3Oc3ccccc32)cc1)C(=O)O [RAGAGLITAZAR]	DILI negative (test set)
CO[C@H]1/C=C/O[C@@]2(C)Oc3c(C)c(O)c4c(O)c(c(/C=N/N5CCN(C)CC5)c(O)c4c3C2=O)NC(=O)/C(C)=C\C=C\[C@H](C)[C@H](O)[C@@H](C)[C@@H](O)[C@@H](C)[C@H](OC(C)=O)[C@@H]1C [RIFAMPIN]	DILI negative (test set)
COc1ccc(CCN2CCC(Nc3nc4ccccc4n3Cc3ccc(F)cc3)CC2)cc1 [ASTEMIZOLE]	DILI negative (training set)
COC(=O)C1=C(C)NC(C)=C(C(=O)OCC(C)C)C1c1ccccc1[N+](=O)[O-] (configuration not stated) [NISOLDIPINE]	DILI negative (training set)
CC[C@H]1OC(=O)[C@H](C)[C@@H](O[C@H]2C[C@@](C)(OC)[C@@H](O)[C@H](C)O2)[C@H](C)[C@@H](O[C@@H]2O[C@H](C)C[C@H](N(C)C)[C@H]2O)[C@](C)(OC)C[C@@H](C)C(=O)[C@H](C)[C@@H](O)[C@]1(C)O [CLARITHROMYCIN]	DILI positive (test set)
NCC1(CC(=O)O)CCCCC1 [GABAPENTIN]	DILI negative (training set)
CCCCc1ncc(/C=C(\Cc2cccs2)C(=O)O)n1Cc1ccc(C(=O)O)cc1 [EPROSARTAN]	DILI negative (test set)
AUROTHIOLAMATE	DILI positive (test set)
C=C[C@H]1C[N@@]2CC[C@H]1C[C@@H]2[C@@H](O)c1ccnc2ccc(OC)cc12 [QUINIDINE]	DILI positive (training set)
FCCCCCF [1,5-DIFLUOROPENTANE]	DILI positive (test set)
CC1=C(/C=C/C(C)=C/C=C/C(C)=C/C(=O)O)C(C)(C)CCC1 [TRETINOIN]	DILI positive (training set)
COc1cc2c(c(OC)c1OC)-c1ccc(OC)c(=O)cc1[C@@H](NC(C)=O)CC2 [COLCHICINE]	DILI negative (training set)
CC(C)(Oc1ccc(C2CC2(Cl)Cl)cc1)C(=O)O (configuration not stated) [CIPROFIBRATE]	DILI positive (training set)
C[C@]12CC[C@@H]3c4ccc(O)cc4CC[C@H]3[C@@H]1CCC2=O [ESTRONE]	DILI positive (training set)
Nc1nc2ccc(OC(F)(F)F)cc2s1 [RILUZOLE]	DILI positive (training set)
CC[C@H](C)[C@H](N)C1=N[C@H](C(=O)N[C@@H](CC(C)C)C(=O)N[C@H](CCC(=O)O)C(=O)N[C@H](C(=O)N[C@H]2CCCCNC(=O)[C@H](CC(N)=O)NC(=O)[C@@H](CC(=O)O)NC(=O)[C@H](Cc3cnc[nH]3)NC(=O)[C@@H](Cc3ccccc3)NC(=O)[C@H]([C@@H](C)CC)NC(=O)[C@@H](CCCN)NC2=O)[C@@H](C)CC)CS1 [BACITRACIN] (HELM PEPTIDE1{[CC[C@H](C)[C@H](N)C1=N[C@H](C(=O)[*:2])CS1].L.[dE].I.K.[NCCC[C@@H](N[*:1])C(=O)[*:2]].I.[dF].H.[dD].N}$PEPTIDE1,PEPTIDE1,5:R3-11:R2$$$V2.0)	DILI negative (training set)

Compound	Hepatotoxicity
POTASSIUM DICHROMATE	DILI positive (training set)
Cc1cn([C@H]2C[C@H](N=[N+]=[N-])[C@@H](CO)O2)c(=O)[nH]c1=O [ZIDOVUDINE]	DILI positive (training set)
CC(=O)O[C@]1(C(C)=O)CC[C@H]2[C@@H]3C=C(Cl)C4=CC(=O)[C@@H]5C[C@@H]5[C@]4(C)[C@H]3CC[C@@]21C [CYPROTERONE ACETATE]	DILI positive (training set)
Cc1ccccc1N1C(=O)c2cc(S(N)(=O)=O)c(Cl)cc2NC1C (configuration not stated) [METOLAZONE]	DILI positive (test set)
COc1ccc([C@@H]2Sc3ccccc3N(CCN(C)C)C(=O)[C@@H]2OC(C)=O)cc1.Cl [DILTIAZEM HYDROCHLORIDE]	DILI negative (training set)
CCCCC1=NC2(CCCC2)C(=O)N1Cc1ccc(-c2ccccc2-c2nnn[nH]2)cc1 [IRBESARTAN]	DILI negative (test set)
CCOC(=O)CN[C@@H](C(=O)N1CC[C@H]1C(=O)NCc1ccc(/C(N)=N\O)cc1)C1CCCCC1 [XIMELAGATRAN]	DILI positive (test set)
CC12CC3CC(C)(C1)CC(N)(C3)C2 [MEMANTINE]	DILI negative (training set)
O=C1CCC(=O)N1c1cc(Cl)cc(Cl)c1 [DIMETHACHLON]	DILI positive (test set)
Nc1ccc(S(=O)(=O)NC(=O)c2ccccc2)cc1 [SULFABENZAMIDE]	DILI negative (test set)
CN1C(=O)OC(C)(C)C1=O [TRIMETHADIONE]	DILI positive (training set)
Clc1ccc(COC(Cn2ccnc2)c2ccc(Cl)cc2Cl)c(Cl)c1 (configuration not stated) [MICONAZOLE]	DILI negative (training set)
N[C@@H](C(=O)N[C@@H]1C(=O)N2C(C(=O)O)=C(Cl)CC[C@H]12)c1ccccc1 [LORACARBEF ANHYDROUS]	DILI negative (test set)
CCCCN1CCCCC1C(=O)Nc1c(C)cccc1C (configuration not stated) [BUPIVACAINE]	DILI negative (training set)
CCCc1nc(C(C)(C)O)c(C(=O)O)n1Cc1ccc(-c2ccccc2-c2nnn[nH]2)cc1 [OLMESARTAN]	DILI negative (test set)
CN(CCOc1ccc(CC2SC(=O)NC2=O)cc1)c1ccccn1 (configuration not stated) [ROSIGLITAZONE]	DILI negative (test set)
CNS(=O)(=O)Cc1ccc2[nH]cc(CCN(C)C)c2c1	DILI negative (training set)
O=C1CC2(CCCC2)CC(=O)N1CCCCN1CCN(c2ncccn2)CC1 [BUSPIRONE]	DILI negative (test set)
COc1ccccc1Oc1c(NS(=O)(=O)c2ccc(C(C)(C)C)cc2)nc(-c2ncccn2)nc1OCCO [BOSENTAN]	DILI positive (test set)

Same assay, conditions: Liver

Compound	Hepatotoxicity
Cl.NCCNCCNCCN	DILI positive (test set)
Cn1cnc([N+](=O)[O-])c1Sc1ncnc2nc[nH]c12 [AZATHIOPRINE]	DILI positive (training set)
Cc1ccc(C(=O)c2cc(O)c(O)c([N+](=O)[O-])c2)cc1 [TOLCAPONE]	DILI positive (test set)
CNCCC=C1c2ccccc2CCc2ccccc21.Cl [NORTRIPTYLINE HYDROCHLORIDE]	DILI positive (training set)
CCCCc1oc2ccccc2c1C(=O)c1cc(I)c(OCCN(CC)CC)c(I)c1 [AMIODARONE]	DILI positive (training set)
